Laboratory results from patent publication US10610582B2, “Compound and method for vaccination and immunisation” (PCI Biotech AS, priority 2013, dated 2020).
Read-outs that look alike come from different tables or passages of the source.

How the values were obtained:
OVA-specific CD8 T-cells = test: Vaccination with OVA, Poly(IC) or CpG ODN2395 in mice given OT-1 cells: OVA-specific CD8 T-cells in blood by flow cytometry (Example 3); format: in vivo, C57BL/6 mice; conditions: day 7
Description: One day prior to the immunisation, spleens and lymph nodes were isolated from female OT-1 mice, and erythrocytes were removed by lysis (RBC Lysing Buffer Hybri-Max from Sigma-Aldrich) from the homogenised cell suspensions. […] One day or 8 hours later, mice were bled by tail bleeding, and the blood was collected in heparin-containing tubes for analysis of the baseline frequency of OVA-specific CD8 T cells.
The illumination time was 6 minutes.
At the end of the experiment (day 14), the mice were euthanized and the splenocytes analysed ex vivo.

[1] = test system: antigen specific CD8 T-cells (HPV pentamer); test: PCI with HPV short peptide antigen and poly(IC) in normal mice, HPV pentamer flow cytometry (Example 16)
[2] = test system: antigen specific CD8 T-cells
[3] = test system: antigen-specific CD8+ T-cells (TRP-2 pentamer); test: PCI with melanoma antigen peptides (TRP-2 and gp100) and poly(IC) in normal mice, TRP-2 pentamer flow cytometry (Example 6); format: in vivo, C57BL/6 mice; conditions: after 2nd immunisation
[4] = test system: antigen specific CD8 T-cells; format: in vivo, C57BL/6 mice; conditions: 3rd immunisation (day 51) with poly(IC)+PCI after two immunisations with poly(IC) only, group 2
Description: The generation of immunological memory was tested by a 3rd immunisation at day 51 with a poly(IC)+PCI treatment. […]

[5] = test system: antigen specific CD8 T-cells (HPV pentamer); test: PCI with HPV peptide antigen and poly(IC) in normal mice, HPV pentamer flow cytometry (Example 12); conditions: after three immunisations; 50 μg HPV peptide + 10 μg poly(IC) twice, 3rd with poly(IC) + PCI (100 μg TPCS2a + light), group 6
[6] = test system: antigen specific CD8 T-cells; format: in vivo, C57BL/6 mice; conditions: 200 μg OVA + 10 μg poly(IC) injected 2 h before illumination, TPCS2a 150 μg 18 h before illumination
Description: In all groups TPCS2a was injected 18 h before illumination, while OVA antigen and poly(IC) was either injected 18 h before illumination in a mixture with TPCS2a, or 2 h before illumination as a separate injection. Illumination was for 6 min with the LumiSource illumination device. […]

[7] = test system: antigen specific CD8 T-cells (HPV pentamer); test: PCI with HPV long peptide antigen and poly(IC) in normal mice, HPV pentamer flow cytometry (Example 15)
[8] = test system: antigen specific CD8 T-cells; format: in vivo, C57BL/6 mice; conditions: particularly after 2nd immunisation; 200 μg OVA + 50 μg poly(IC) + PCI (150 μg TPCS2a + light), group 5
From the text: The following experimental groups were included:

IL-2 = format: in vivo, C57BL/6 mice; conditions: day 14 spleen, 10 μg OVA + labelled TLR ligand + PCI, compared with other groups
IFN-γ = format: in vivo, C57BL/6 mice; conditions: day 14 spleen, 10 μg OVA + labelled TLR ligand + PCI, compared with other groups
[9] = 10 μg OVA with the labelled agent alone (50 μg ODN2395 CpG or 50 μg Poly(IC) without PCI; PCI = 150 μg TPCS2a + light without adjuvant)
[10] = HPV short peptide with only the labelled agent (only p(IC) or only PCI) for both immunisations
[11] = TRP-2 + gp100 peptides (50 μg each) with the labelled agent alone (10 μg poly(IC), or PCI = 100 μg TPCS2a + light), vs untreated

Compound | % antigen-specific, CD44+ cells of the total CD8+ cells in blood (OVA-specific CD8 T-cells; [9]) | % antigen-specific, CD44+ cells of the total CD8+ cells (HPV pentamer) [1, 10] | % antigen-specific, CD44+ cells of the total CD8+ cells ([2]; 10 μg OVA alone or with red light PCI (150 μg TPCS2a, 652 nm) only, after 1st and 2nd immunisation) | % antigen-specific, CD44+ cells of the total CD8+ cells (TRP-2 pentamer) [3, 11] | % antigen-specific, CD44+ cells of the total CD8+ cells [4] | % antigen-specific, CD44+ cells of the total CD8+ cells (HPV pentamer) [5] | % antigen-specific, CD44+ cells of the total CD8+ cells [6] | % antigen-specific, CD44+ cells of the total CD8+ cells in blood (OVA-specific CD8 T-cells; 10 μg OVA + 50 μg labelled adjuvant combined with PCI (150 μg TPCS2a + light)) | % antigen-specific, CD44+ cells of the total CD8+ cells (HPV pentamer) ([7]; HPV long peptide + 10 μg p(IC) twice, without PCI, group 2) | % antigen-specific, CD44+ cells of the total CD8+ cells (HPV pentamer) ([7]; HPV long peptide, one immunisation with PCI+p(IC), one with only PCI, groups 4 and 5) | % antigen-specific, CD44+ cells of the total CD8+ cells (HPV pentamer) ([7]; after two immunisations, both with 50 μg HPV long peptide + 10 μg p(IC) + PCI (100 μg TPCS2a + light), group 3) | % antigen-specific, CD44+ cells of the total CD8+ cells (HPV pentamer) ([1]; HPV short peptide, 1st immunisation p(IC)+PCI, 2nd immunisation PCI only, group 6) | % antigen-specific, CD44+ cells of the total CD8+ cells (HPV pentamer) ([1]; after two immunisations, both with 50 μg HPV short peptide + 10 μg p(IC) + PCI (100 μg TPCS2a + light), group 5) | % antigen-specific, CD44+ cells of the total CD8+ cells [8] | % antigen-specific, CD44+ cells of the total CD8+ cells ([2]; 10 μg OVA + poly(IC) (50 μg 1st, 10 μg 2nd) + red light PCI, group 6) | % antigen-specific, CD44+ cells of the total CD8+ cells ([2]; 100 μg OVA + poly(IC) (50 μg 1st, 10 μg 2nd) + red light PCI, group 7, vs antigen alone) | % antigen-specific, CD44+ cells of the total CD8+ cells (TRP-2 pentamer) ([3]; TRP-2 + gp100 peptides + 10 μg poly(IC) + PCI (100 μg TPCS2a + light), group 4) | IL-2 production in total spleen cells (ELISA) (IL-2) | IFN-γ production in total spleen cells (ELISA) (IFN-γ)
tetraphenyl chlorin disulfonate [PCI] | substantially more potent than either of these adjuvants | no immune response | no immunisation effect | no significant increase in antigen-specific cells |  |  |  |  |  |  |  |  |  |  |  |  |  |  | 
Polyinosine-polycytidylic acid [Poly(IC)] | no significant | no immune response |  | no significant increase in antigen-specific cells | did not seem to boost immunisation to any significant degree | HPV-specific immune response was induced | immune response is enhance | clear synergistic effect | no effect | weaker, but still significant immune response | strong HPV-specific immune response | significant immune response | significant immune response | substantially better immunisation than only poly(IC) (group 4) or only PCI (group 3) | required to achieve an immune response | substantially better | clear synergistic effect leading to a significant increase in the number of antigen-specific CD8+ T-cells |  | 
CCOCc1nc2c(N)nc3ccccc3c2n1CC(C)(C)O [R848, 1-[4-amino-2-(ethoxymethyl)imidazo[4,5-c]quinolin-1-yl]-2-methylpropan-2-ol] |  |  |  |  |  |  |  |  |  |  |  |  |  |  |  |  |  | highest | highest
